System: Ba/F3-TPM3-NTRK1-G667C cells
Assay: Growth inhibition of Ba/F3-TPM3-NTRK1-G667C cells (Cell Titer-Glo)
Type: cell-based
Details: 72 hours, CTG; read-out: inhibitory activity IC50 Ba/F3-TPM3-NTRK1-G667C
Experimental: Then the solutions were subjected to a gradient dilution with DMSO: a clean, sterile V-bottom 96-well microplate was placed in the biological safety cabinet. First, 4 μL of DMSO was added to well B2 and 10 μL of DMSO was added to wells B3-B11 respectively; Next, 6 μL of the 10 mM solution was added to well B2. The microplate was pipetted up and down 10 times for mixing. […] Mixing was performed by pipetting up and down 10 times. The solution was diluted in order until well B10. only DMSO was added to well B11 (no compound).
6× Compound Solution Preparation (6-fold dilution, × represents dilution factor): (Initial final concentration: 10 μM), a clean, sterile V-bottom 96-well microplate was placed in the biological safety cabinet. 99 μL of cell culture medium was added to each well from B2 to G11. By using a 12-channel pipettor, 1 μL of the compound solution prepared in the previous step was added into the corresponding wells. The solutions were pipetted up and down 10 times to mix the solutions. The highest concentration of compound in this step was 60 μM.
Treatment of Cells: the above-prepared cell culture plate was taken out of the incubator. 20 μL of compound solution from each well was added to the corresponding cell culture wells. The lowest pipetting speed was used and touching the bottom of the plate was avoided. The culture plate was gently shaked to mix the compound solution, then the plate was returned to the incubator for further culture for 72 hours.
The highest treatment concentration of the compound was 10 μM. After 72 hours of treatment, the Cell Titer-Glo (CTG) assay was performed. First, the cell culture plate was removed from the CO2 incubator and allowed to stand at room temperature for 30 minutes to ensure uniform temperature of the plate. The pre-prepared Cell Titer-Glo reagent (following the manufacturer's instructions) was taken and allowed to stand at room temperature to thaw. 60 μL of Cell Titer-Glo reagent was added to each well containing cells. The cells were incubated on a horizontal shaker in a dark place at 225 rpm for 1 hour at room temperature. Then, a Tecan Spark microplate reader was used to read the plate using chemiluminescence according to the manufacturer's instructions.

Compound: Fc1ccc2c(c1)[C@H]1CCCN1c1ccc3ncc(n3n1)-c1cc(cnn1)CO2 [Example I-65, (14bR,E)-13-fluoro-14b,15,16,17-tetrahydro-9H-1,19-etheno-4,8-(metheno)benzo[n]imidazo[5,1-h]pyrrolo[1,2-l][1]oxa[5,6,9,10,12]pentaazacyclopentadecine]
- IC50: < 0.1 µM

Compound: Fc1cnc2c(c1)[C@H]1CCCN1c1ccc3ncc(n3n1)-c1cc(cnn1)CO2 [Example I-67, (14bR,E)-13-fluoro-14b,15,16,17-tetrahydro-9H-1,19-etheno-4,8-(metheno)imidazo[5,1-h]pyrido[3,2-n]pyrrolo[1,2-l][1]oxa[5,6,9,10,12]pentaazacyclopentadecine]
- IC50: < 0.1 µM

Compound: Fc1cnc2c(c1)[C@H]1CCCN1c1ccc3ncc(n3n1)-c1cc(ncn1)CCO2 [Example I-71, (3^2R,E)-4^5-fluoro-5-oxa-2(3,6)-imidazo[1,2-b]pyridazina-1(4,6)-pyrimidina-4(3,2)-pyridina-3(1,2)-pyrrolidinacycloheptaphane]
- IC50: < 0.1 µM

Compound: C[C@H]1Nc2ccc3ncc(n3n2)-c2cc(ncn2)CCOc2ncc(F)cc21 [Example I-73, (4R,E)-5^5-fluoro-4-methyl-6-oxa-3-aza-2(3,6)-imidazo[1,2-b]pyridazina-1(4,6)-pyrimidina-5(3,2)-pyridinacyclooctaphane]
- IC50: < 0.1 µM

Compound: C[C@H]1Nc2ccc3ncc(n3n2)-c2cc(ncn2)CCOc2ccc(F)cc21 [Example I-74, (4R,E)-5′-fluoro-4-methyl-6-oxa-3-aza-2(3,6)-imidazo[1,2-b]pyridazina-1(4,6)-pyrimidina-5(1,2)-benzenacyclooctaphane]
- IC50: < 0.1 µM

Compound: C[C@H]1Nc2ccc3ncc(n3n2)-c2cc(ccn2)CCOc2ncc(F)cc21 [Example I-75, (4R,E)-5^5-fluoro-4-methyl-6-oxa-3-aza-2(3,6)-imidazo[1,2-b]pyridazina-1(2,4), 5(3,2)-dipyridinacyclooctaphane]
- IC50: < 0.1 µM

Compound: C[C@H]1Nc2ccc3ncc(n3n2)-c2cc(ccn2)CCOc2ccc(F)cc21 [Example I-76, (4R,E)-5-fluoro-4-methyl-6-oxa-3-aza-2(3,6)-imidazo[1,2-b]pyridazina-1(2,4)-pyridina-5(1,2)-benzenacyclooctaphane]
- IC50: < 0.1 µM

Compound: C[C@H]1Nc2ccc3ncc(n3n2)-c2cc(ncn2)COc2ncc(F)cc21 [Example I-77, (6R,E)-5^5-fluoro-6-methyl-4-oxa-7-aza-1(3,6)-imidazo[1,2-b]pyridazina-2(4,6)-pyrimidina-5(2,3)-pyridinacycloheptaphane]
- IC50: < 0.1 µM

Compound: C[C@H]1Nc2ccc3ncc(n3n2)-c2cc(ncn2)COc2ccc(F)cc21 [Example I-78, (6R,E)-5^4-fluoro-6-methyl-4-oxa-7-aza-1(3,6)-imidazo[1,2-b]pyridazina-2(4,6)-pyrimidina-5(1,2)-benzenacycloheptaphane]
- IC50: < 0.1 µM

Compound: C[C@H]1Nc2ccc3ncc(n3n2)-c2nccc(n2)COc2ncc(F)cc21 [Example I-79, (6R,E)-5^5-fluoro-6-methyl-4-oxa-7-aza-1(3,6)-imidazo[1,2-b]pyridazina-2(2,4)-pyrimidina-5(2,3)-pyridinacycloheptaphane]
- IC50: < 0.1 µM

Compound: C[C@H]1Nc2ccc3ncc(n3n2)-c2nccc(n2)COc2ccc(F)cc21 [Example I-80, (6R,E)-5^4-fluoro-6-methyl-4-oxa-7-aza-1(3,6)-imidazo[1,2-b]pyridazina-2(2,4)-pyrimidina-5(1,2)-benzenacycloheptaphane]
- IC50: < 0.1 µM

Compound: C[C@H]1Nc2ccc3ncc(n3n2)-c2cc(cnn2)COc2ncc(F)cc21 [Example I-81, (6R,E)-5^5-fluoro-6-methyl-4-oxa-7-aza-1(3,6)-imidazo[1,2-b]pyridazina-2(3,5)-pyridazina-5(2,3)-pyridinacycloheptaphane]
- IC50: < 0.1 µM

Compound: C[C@H]1Nc2ccc3ncc(n3n2)-c2cc(cnn2)COc2ccc(F)cc21 [Example I-82, (6R,E)-54-fluoro-6-methyl-4-oxa-7-aza-1(3,6)-imidazo[1,2-b]pyridazina-2(3,5)-pyridazina-5(1,2)-benzenacycloheptaphane]
- IC50: < 0.1 µM

Compound: C[C@H]1Nc2ccc3ncc(n3n2)-c2nccc(n2)CCOc2ncc(F)cc21 [Example I-83, (4R,E)-5′-fluoro-4-methyl-6-oxa-3-aza-2(3,6)-imidazo[1,2-b]pyridazina-1(2,4)-pyrimidina-5(3,2)-pyridinacyclooctaphane]
- IC50: < 0.1 µM

Compound: C[C@H]1Nc2ccc3ncc(n3n2)-c2nccc(n2)CCOc2ccc(F)cc21 [Example I-84, (4R,E)-5^5-fluoro-4-methyl-6-oxa-3-aza-2(3,6)-imidazo[1,2-b]pyridazina-1(2,4)-pyrimidina-5(1,2)-benzenacyclooctaphane]
- IC50: < 0.1 µM

Compound: Fc1ccc2c(c1)[C@H]1CCCN1c1ccc3ncc(n3n1)-c1nccc(n1)CCO2 [Example I-85, (3^2R,E)-4^5-fluoro-5-oxa-2(3,6)-imidazo[1,2-b]pyridazina-1(2,4)-pyrimidina-3(1,2)-pyrrolidina-4(1,2)-benzenacycloheptaphane]
- IC50: < 0.1 µM

Compound: Fc1cnc2c(c1)[C@H]1CCCN1c1ccc3ncc(n3n1)-c1nccc(n1)CCO2 [Example I-87, (3^2R,E)-4^5-fluoro-5-oxa-2(3,6)-imidazo[1,2-b]pyridazina-1(2,4)-pyrimidina-4(3,2)-pyridina-3(1,2)-pyrrolidinacycloheptaphane]
- IC50: < 0.1 µM

Compound: Fc1ccc2c(c1)[C@H]1CCCN1c1ccc3ncc(n3n1)-c1cc(cnn1)CCO2 [Example I-91, (3^2R,E)-4^5-fluoro-5-oxa-2(3,6)-imidazo[1,2-b]pyridazina-1(3,5)-pyridazina-3(1,2)-pyrrolidina-4(1,2)-benzenacycloheptaphane]
- IC50: < 0.1 µM

Compound: Fc1cnc2c(c1)[C@H]1CCCN1c1ccc3ncc(n3n1)-c1cc(cnn1)CCO2 [Example I-93, (3^2R,E)-4^5-fluoro-5-oxa-2(3,6)-imidazo[1,2-b]pyridazina-1(3,5)-pyridazina-4(3,2)-pyridina-3(1,2)-pyrrolidinacycloheptaphane]
- IC50: < 0.1 µM
